This passage reports IC50 results from patent publication US20200331882A1, “COMPOUND FOR SIMULTANEOUSLY INHIBITING LSD1 AND HDAC TARGETS AND APPLICATION THEREOF” (PEKING UNIVERSITY SHENZHEN GRADUATE SCHOOL, priority 2018, published 2020).

The target in one assay is T1, HDAC1 (Homo sapiens, UniProt Q13547).
T1 construct: purchased Enzo Biochem Inc
The experiment in a line: In vitro HDAC1 inhibitory activity, FLUOR DE LYS HDAC1 fluorometric assay kit. Format: biochemical. To be noted: HDAC1 enzyme activity in vitro. The text has this:
The principle was shown in the following reaction formula: HDAC1 catalyzes the deacetylation of a substrate FLUOR DE LYS® Substrate (containing an acetylated side chain), the product can react with FLUOR DE LYS® Developer II to generate fluorescence (shown in the following reaction process), and the inhibitory activity of a molecule to be detected on HDAC1 can be indirectly obtained by detecting the fluorescence intensity of the product. In this experiment, 360 nm was selected as the excitation wavelength and 460 nm as the emission wavelength for detection. FLUOR DE LYS® HDAC1 fluorometric drug discovery assay kit required for experiments was purchased from Enzo Biochem Inc.
During the test, the sample was prepared according to the specific experimental conditions of blocking the HDAC1 enzyme activity of the compound of the present invention in vitro in accordance with Table 2 below.

Assay [1] deals with T2, recombinant human LSD1 protein (Homo sapiens, UniProt O60341).
T2 construct: made in house; host or cells: E. coli
The experiment in a line: In vitro LSD1 inhibitory activity, LSD1-HRP coupling reaction (Amplex Red). The following applies: LSD1 enzyme activity in vitro; 30 min preincubation; H3K4Me2 peptide. Format: biochemical. The source says: LSD1 activity was detected by using LSD1-HRP coupling reaction. […] During the reduction of H2O2 to H2O, Amplex Red acts as an electron donor and oxidizes to Resorufin for detection of fluorescence. […] Ampliflu™ Red, peroxidase, from horseradish required for the experiment was purchased from SIGMA; H3K4Me2 substrate peptide was purchased from GL Biochemical (Shanghai) Co., Ltd.

In assay [2] the test system is human breast cancer cell line MDA-MB-231. Nature of the assay: MTT tumor cell proliferation. Format: cell-based. To be noted: 72 h. The source says: (§1) MTT colorimetric method was used to detect the inhibitory activity of a series of compounds (i.e. ZZY-001 to ZZY-016, a total of 16 kinds) of the embodiment of the present invention on the proliferation of tumor cells in vitro. The full name of MTT is 3-(4,5-dimethyl-2-thiazolyl)-2,5-diphenyl-2-H-tetrazolium romide, which is a yellow dye also known as thiazolyl blue. […] DMSO can dissolve Formazan deposited in cells and the absorbance value can be measured with a enzyme marker at a wavelength of 490 nm. In a certain range of cell number, the production of Formazan is proportional to the number of cells, so the number of living cells can be inferred according to the measured OD value.
In the experiments of this embodiment, the selected cell lines are human breast cancer cell line MDA-MB-231 and BT-474, human colon adenocarcinoma cell HCT116, mouse colon cancer cell CT26.WT, mouse breast cancer cell 4T1. During the test, the cells in logarithmic phase and in good condition were digested with 0.25% trypsin digestion solution to make the adherent cells fall off, and the cell suspension (suspension cells without trypsin digestion) was made by counting 2-4×10^4 cells/ml. The cell suspension was inoculated on a 96-well plate at 100 μl/well and cultured in a constant temperature CO2 incubator for 24 h. Then the tested drugs were added, 100 μl/well, and cultured for 72 h. MTT was added to a 96-well plate, 20 μl/well, and reacted for 4 h in the incubator. Absorb the supernatant, add DMSO, 150 μl/well and shake for 10 min on the plate shaker. The optical density (OD value) of each well was measured by enzyme marker at the wavelength of 490 nm. […]

Assay [3] concerns human colon adenocarcinoma cell HCT116. The experiment in a line: MTT tumor cell proliferation. Format: cell-based.
Source text: as §1
(§2) The cell suspension was inoculated on a 96-well plate at 100 μl/well and cultured in a constant temperature CO2 incubator for 24 h. Then the tested drugs were added, 100 μl/well, and cultured for 72 h. MTT was added to a 96-well plate, 20 μl/well, and reacted for 4 h in the incubator. Absorb the supernatant, add DMSO, 150 μl/well and shake for 10 min on the plate shaker. The optical density (OD value) of each well was measured by enzyme marker at the wavelength of 490 nm.

Assay [4] concerns mouse colon cancer cell CT26.WT. The experiment in a line: MTT tumor cell proliferation. Format: cell-based. To be noted: 72 h.
Source text: as §1, §2

For assay [5], the system named is human breast cancer cell line BT-474. The experiment in a line: MTT tumor cell proliferation. Format: cell-based. The following applies: 72 h.
Source text: as §1, §2

Assay [6] deals with mouse breast cancer cell 4T1. Nature of the assay: MTT tumor cell proliferation. Format: cell-based. To be noted: 72 h.
Source text: as §1, §2

T1 sequence (Q13547 whole entry): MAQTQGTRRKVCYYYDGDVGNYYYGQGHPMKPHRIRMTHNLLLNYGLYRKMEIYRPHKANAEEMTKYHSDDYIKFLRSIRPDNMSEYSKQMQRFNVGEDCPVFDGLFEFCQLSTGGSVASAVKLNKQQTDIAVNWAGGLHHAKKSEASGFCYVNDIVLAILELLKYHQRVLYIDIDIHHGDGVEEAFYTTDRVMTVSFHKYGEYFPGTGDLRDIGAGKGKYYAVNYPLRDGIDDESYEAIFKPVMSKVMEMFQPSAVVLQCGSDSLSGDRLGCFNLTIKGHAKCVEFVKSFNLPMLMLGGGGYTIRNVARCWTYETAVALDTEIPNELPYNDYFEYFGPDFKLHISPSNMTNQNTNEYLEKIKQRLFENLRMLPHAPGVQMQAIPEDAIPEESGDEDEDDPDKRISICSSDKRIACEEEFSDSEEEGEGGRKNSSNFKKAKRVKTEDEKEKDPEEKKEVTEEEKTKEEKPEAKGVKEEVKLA

What is called IC50 is the midpoint of a concentration-inhibition curve. On to `Cc1cc(/C=C/C(=O)NO)ccc1-c1ccc(N2CCOCC2)cc1` [ZZY-007], for which the IC50 against HDAC1 is 1110 nM; in assay [1] it was 477 nM.
As for `Cc1cc(/C=C/C(=O)NO)ccc1-c1ccc(N2CCN(C)CC2)cc1` [ZZY-011], the IC50 at HDAC1 is 434 nM; in assay [2] (Homo sapiens) it was 2040 nM; in assay [1], 131 nM; in assay [3] (Homo sapiens, HCT-116, 72 h) it was 728 nM; in assay [4] (Mus musculus), 1050 nM; in assay [5] (Homo sapiens), 5900 nM. For the same compound, in assay [6] (Mus musculus), the IC50 was 2600 nM.
Regarding `Cc1cc(/C=C/C(=O)NO)ccc1-c1ccc(N2CCNCC2)cc1NC(=O)c1ccccc1` [ZZY-002], the IC50 against HDAC1 stood at 71.6 nM; in assay [2] (Homo sapiens) it was 1370 nM; in assay [1], 1320 nM; in assay [3] (Homo sapiens, HCT-116, 72 h), 1290 nM; in assay [4] (Mus musculus) it was 31200 nM; in assay [5] (Homo sapiens), 7560 nM. Moreover, the IC50 in assay [6] (Mus musculus) was determined as 5610 nM.
Regarding `Cc1cc(/C=C/C(=O)NO)ccc1-c1ccc(N2CCNCC2)nc1` [ZZY-015], the IC50 came to 262 nM against HDAC1 and 879 nM in assay [1].
Taken in the same sequence, the figures for `Cc1cc(/C=C/C(=O)NO)ccc1-c1ccc(N2CCCCC2)cc1` [ZZY-013] were 9640 nM and 1410 nM.
Taken in the same sequence, the figures for `Cc1ccc(C(=O)Nc2cc(N3CCNCC3)ccc2-c2ccc(C(=O)Nc3ccccc3N)cc2C)cc1` [ZZY-005] were 8940 nM and 5160 nM.
Consider `N[C@@H]1C[C@H]1c1ccccc1` (racemic) [TCP, tranylcypromine, reference compound], for which the IC50 on HDAC1 is greater than 100000 nM; in assay [2] it was greater than 10000 nM; in assay [3] (72 h), greater than 10000 nM; in assay [4] it was greater than 10000 nM; in assay [5] it was greater than 10000 nM; in assay [6], greater than 10000 nM.
For the compound `Cc1cc(C(=O)Nc2ccccc2N)ccc1-c1ccc(N2CCNCC2)cc1` [ZZY-006], the IC50 is 5380 nM against HDAC1 and 2380 nM in assay [1].
Taken in the same sequence, the figures for `O=C(/C=C/c1ccc(-c2ccc(N3CCCCC3)cc2)cc1)NO` [ZZY-014] were 9860 nM and 1110 nM.
With `Cc1cc(/C=C/C(=O)NO)ccc1-c1ccc(N2CCNCC2)cc1` [ZZY-001], the IC50 was found to be 671 nM against HDAC1; 2320 nM in assay [2] (Homo sapiens); 1550 nM in assay [1]; 1540 nM in assay [3] (Homo sapiens, HCT-116, 72 h); 2200 nM in assay [4] (Mus musculus); 17800 nM in assay [5] (Homo sapiens). The compound further registered a 50% inhibitory concentration (IC50) in assay [6] (Mus musculus) of 3870 nM.
Turning to `Cc1cc(/C=C/C(=O)NO)ccc1-c1ccc(-n2ccnc2)cc1` [ZZY-009], the IC50 against HDAC1 came to 2800 nM; in assay [1], 1400 nM.
For `O=C(/C=C/c1ccc(-c2ccc(-n3ccnc3)cc2)cc1)NO` [ZZY-010] the same measures were 3520 nM and 8260 nM.
Taken in the same sequence, the figures for `O=C(/C=C/c1ccc(-c2ccc(N3CCOCC3)cc2)cc1)NO` [ZZY-008] were 9360 nM and 716 nM.
For `O=C(/C=C/c1ccc(-c2ccc(N3CCNCC3)nc2)cc1)NO` [ZZY-016] the same measures were 451 nM and 991 nM.
Turning to `CN1CCN(c2ccc(-c3ccc(/C=C/C(=O)NO)cc3)cc2)CC1` [ZZY-012], the IC50 on HDAC1 came out at 942 nM; in assay [2] (Homo sapiens), 1140 nM; in assay [1] it was 16.1 nM; in assay [3] (Homo sapiens, HCT-116, 72 h), 469 nM; in assay [4] (Mus musculus), 737 nM; in assay [5] (Homo sapiens) it was 4210 nM. This compound had an IC50 in assay [6] (Mus musculus) of 2320 nM.
